Converted amounts (≈) assume the structure as drawn.
Assays:
[1] = molecular target: T1, PBP3 from Pseudomonas aeruginosa (PAO1) (Pseudomonas aeruginosa, UniProt G3XD46); assay: Bocillin-FL fluorescence polarization competition binding, P. aeruginosa PBP3; conditions: Binding affinity to P. aeruginosa PBP3; fluorescence polarization competition binding assay using Bocillin-FL; read-out: P. aeruginosa PBP3 Potency
T1 construct: made in house
Procedure, shortened: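 Purified PBPs pre-incubated with inhibitor (E. coli PBP3 1.5 μM, 30 min; P. aeruginosa PBP3 0.75 μM, A. baumannii PBP1a 1 μM and PBP3 0.2 μM, 15 min), then Bocillin-FL 0.1 μM (0.05 μM for PBP1a) added; FP read up to 60 min. EC50 = concentration halving bound Bocillin-FL.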

[2] = molecular target: A. baumannii PBP2 (Acinetobacter baumannii, UniProt D0C8Z9); assay: Bocillin-FL competition binding via gel filtration, A. baumannii PBP2
Procedure, shortened: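 Enzyme pre-incubated with increasing inhibitor concentrations, then Bocillin-FL added for 15 min further incubation. Bocillin-FL-bound PBP separated by gel filtration and fluorescence read. EC50 from fitting fraction PBP bound vs inhibitor concentration to a Hill-type equation (ymin, ymax, n).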

[3] = tested on: A. baumannii ATCC 17978; assay: microbe, parasite or virus in culture; type: cell-based; conditions: Acinetobacter baumannii, ATCC17978, read-out: MIC, A. baumannii ATCC 17978
[4] = tested on: A. baumannii ATCC 19606; assay: microbe, parasite or virus in culture; type: cell-based; conditions: Acinetobacter baumannii, ATCC19606, read-out: MIC, A. baumannii ATCC 19606
[5] = tested on: P. aeruginosa ATCC 35151; assay: microbe, parasite or virus in culture; type: cell-based; conditions: Pseudomonas aeruginosa, ATCC35151, read-out: Minimum inhibitory concentration, P. aeruginosa ATCC 35151
[6] = tested on: P. aeruginosa CDC-0095; assay: microbe, parasite or virus in culture; type: cell-based; conditions: Pseudomonas aeruginosa, CDC0095, read-out: Minimum inhibitory concentration, P. aeruginosa CDC-0095
[7] = tested on: A. baumannii 1258916; assay: microbe, parasite or virus in culture; type: cell-based, Acinetobacter baumannii; conditions: Acinetobacter baumannii, 1258916, read-out: MIC, A. baumannii 1258916
[8] = tested on: A. baumannii CDC-0033; assay: microbe, parasite or virus in culture; type: cell-based; conditions: Acinetobacter baumannii, CDC0033, read-out: MIC, A. baumannii CDC-0033
[9] = tested on: A. baumannii CDC-0036; assay: microbe, parasite or virus in culture; type: cell-based; conditions: Acinetobacter baumannii, CDC0036, read-out: MIC, A. baumannii CDC-0036
[10] = tested on: A. baumannii CDC-0045; assay: microbe, parasite or virus in culture; type: cell-based; conditions: Acinetobacter baumannii, CDC0045, read-out: MIC, A. baumannii CDC-0045
[11] = tested on: A. baumannii CDC-0083; assay: microbe, parasite or virus in culture; type: cell-based; conditions: Acinetobacter baumannii, CDC0083, read-out: MIC, A. baumannii CDC-0083
[12] = tested on: B. thailandensis ATCC 700388; assay: microbe, parasite or virus in culture; type: cell-based; conditions: Burkholderia thailandensis, ATCC700388, read-out: Minimum inhibitory concentration (MIC), B. thailandensis ATCC 700388
[13] = tested on: B. humptydooensis ATCC BAA-2767; assay: microbe, parasite or virus in culture; type: cell-based; conditions: Burkholderia humptydooensis, ATCCBAA2767, read-out: Minimum inhibitory concentration (MIC), B. humptydooensis ATCC BAA-2767

T1 sequence (G3XD46 whole entry): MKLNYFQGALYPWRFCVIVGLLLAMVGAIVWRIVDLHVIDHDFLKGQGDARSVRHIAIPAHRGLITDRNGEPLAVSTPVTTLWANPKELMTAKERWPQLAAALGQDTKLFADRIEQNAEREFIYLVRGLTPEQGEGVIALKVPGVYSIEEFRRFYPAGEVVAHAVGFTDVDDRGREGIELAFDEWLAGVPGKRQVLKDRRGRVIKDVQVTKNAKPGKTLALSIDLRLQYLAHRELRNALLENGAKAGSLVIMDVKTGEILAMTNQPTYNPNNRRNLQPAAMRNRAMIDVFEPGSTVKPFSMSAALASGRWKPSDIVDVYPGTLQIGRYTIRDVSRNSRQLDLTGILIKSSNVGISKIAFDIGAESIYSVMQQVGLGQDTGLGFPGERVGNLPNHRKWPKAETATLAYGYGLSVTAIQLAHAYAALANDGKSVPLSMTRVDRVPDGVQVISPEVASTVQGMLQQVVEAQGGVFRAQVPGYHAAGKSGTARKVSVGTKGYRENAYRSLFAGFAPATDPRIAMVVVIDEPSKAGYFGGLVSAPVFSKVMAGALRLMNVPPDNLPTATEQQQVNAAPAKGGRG
Sequence of A. baumannii PBP2 (D0C8Z9 whole entry): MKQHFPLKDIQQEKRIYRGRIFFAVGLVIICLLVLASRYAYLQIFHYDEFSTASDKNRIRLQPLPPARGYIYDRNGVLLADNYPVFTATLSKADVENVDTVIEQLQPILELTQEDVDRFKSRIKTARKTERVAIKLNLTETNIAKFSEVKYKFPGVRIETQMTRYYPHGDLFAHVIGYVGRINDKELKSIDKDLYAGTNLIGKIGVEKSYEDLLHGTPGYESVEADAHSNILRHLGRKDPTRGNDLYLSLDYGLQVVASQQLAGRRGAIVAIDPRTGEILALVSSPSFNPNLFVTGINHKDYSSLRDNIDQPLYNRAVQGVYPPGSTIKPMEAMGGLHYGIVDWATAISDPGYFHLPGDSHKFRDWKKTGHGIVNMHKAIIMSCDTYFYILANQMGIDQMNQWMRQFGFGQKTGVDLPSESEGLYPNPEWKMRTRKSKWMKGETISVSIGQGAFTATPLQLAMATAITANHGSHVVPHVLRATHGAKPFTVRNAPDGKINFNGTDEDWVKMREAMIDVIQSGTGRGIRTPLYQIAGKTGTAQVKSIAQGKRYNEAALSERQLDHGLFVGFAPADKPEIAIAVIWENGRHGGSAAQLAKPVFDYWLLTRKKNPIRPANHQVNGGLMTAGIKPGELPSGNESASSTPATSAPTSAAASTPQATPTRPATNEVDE

Row | Compound | IC50 [1] | EC50 [2] | MIC [3] | MIC [4] | MIC [5] | MIC [6] | MIC [7] | MIC [8] | MIC [9] | MIC [10] | MIC [11] | MIC [12] | MIC [13]
1 | O=C(NCCCN1CCN(C(=O)NC(C(=O)N[C@H]2Cc3ccc(F)c(C(=O)O)c3OB2O)c2cc(F)c(O)c(O)c2Cl)C(=O)C1=O)c1ccc(O)c(Cl)c1 (stereo partly drawn) [Example 305, (3R)-3-(2-(4-(3-(3-chloro-4-hydroxybenzamido)propyl)-2,3-dioxopiperazine-1-carboxamido)-2-(2-chloro-5-fluoro-3,4-dihydroxyphenyl)acetamido)-7-fluoro-2-hydroxy-3,4-dihydro-2H-benzo[e][1,2]oxaborinine-8-carboxylic acid] | < 10 µM | < 10 µM | < 1 µg/mL | < 1 µg/mL | < 1 µg/mL | 2 to 4 µg/mL (≈ 2.52 to 5.04 µM) | < 1 µg/mL | 2 to 4 µg/mL (≈ 2.52 to 5.04 µM) | 2 to 4 µg/mL (≈ 2.52 to 5.04 µM) | 2 to 4 µg/mL (≈ 2.52 to 5.04 µM) | 2 to 4 µg/mL (≈ 2.52 to 5.04 µM) | 2 to 4 µg/mL (≈ 2.52 to 5.04 µM) | 2 to 4 µg/mL (≈ 2.52 to 5.04 µM)
2 | O=C(NCCCN1CCN(C(=O)NC(C(=O)N[C@H]2Cc3ccc(F)c(C(=O)O)c3OB2O)c2cc(F)c(O)c(O)c2Cl)C1=O)c1ccc(O)cc1 (stereo partly drawn) [Example 280, (3R)-3-(2-(2-chloro-5-fluoro-3,4-dihydroxyphenyl)-2-(3-(3-(4-hydroxybenzamido)propyl)-2-oxoimidazolidine-1-carboxamido)acetamido)-7-fluoro-2-hydroxy-3,4-dihydro-2H-benzo[e][1,2]oxaborinine-8-carboxylic acid] | < 10 µM | 10 to 50 µM | < 1 µg/mL | < 1 µg/mL | < 1 µg/mL | 8 to 16 µg/mL (≈ 10.9 to 21.9 µM) | < 1 µg/mL | 2 to 4 µg/mL (≈ 2.73 to 5.47 µM) | 2 to 4 µg/mL (≈ 2.73 to 5.47 µM) | < 1 µg/mL | 2 to 4 µg/mL (≈ 2.73 to 5.47 µM) | 2 to 4 µg/mL (≈ 2.73 to 5.47 µM) | 2 to 4 µg/mL (≈ 2.73 to 5.47 µM)
3 | O=C(NCCCN1CCN(C(=O)NC(C(=O)N[C@H]2Cc3ccc(F)c(C(=O)O)c3OB2O)c2cc(F)c(O)c(O)c2Cl)C(=O)C1=O)c1c(F)ccc(O)c1Cl (stereo partly drawn) [Example 414, (3R)-3-(2-(2-chloro-5-fluoro-3,4-dihydroxyphenyl)-2-(4-(3-(2-chloro-6-fluoro-3-hydroxybenzamido)propyl)-2,3-dioxopiperazine-1-carboxamido)acetamido)-7-fluoro-2-hydroxy-3,4-dihydro-2H-benzo[e][1,2]oxaborinine-8-carboxylic acid] | < 10 µM | < 10 µM | < 1 µg/mL | < 1 µg/mL | < 1 µg/mL | < 1 µg/mL | 2 to 4 µg/mL (≈ 2.46 to 4.92 µM) | 2 to 4 µg/mL (≈ 2.46 to 4.92 µM) | 2 to 4 µg/mL (≈ 2.46 to 4.92 µM) | 2 to 4 µg/mL (≈ 2.46 to 4.92 µM) | 2 to 4 µg/mL (≈ 2.46 to 4.92 µM) | 2 to 4 µg/mL (≈ 2.46 to 4.92 µM) | 2 to 4 µg/mL (≈ 2.46 to 4.92 µM)
4 | O=C(NCCCN1CCN(C(=O)NC(C(=O)N[C@H]2Cc3ccc(F)c(C(=O)O)c3OB2O)c2cc(F)c(O)c(O)c2Cl)C(=O)C1=O)c1cc(O)ccc1F (stereo partly drawn) [Example 407, (3R)-3-(2-(2-chloro-5-fluoro-3,4-dihydroxyphenyl)-2-(4-(3-(2-fluoro-5-hydroxybenzamido)propyl)-2,3-dioxopiperazine-1-carboxamido)acetamido)-7-fluoro-2-hydroxy-3,4-dihydro-2H-benzo[e][1,2]oxaborinine-8-carboxylic acid] | < 10 µM | 10 to 50 µM | < 1 µg/mL | < 1 µg/mL | < 1 µg/mL | 2 to 4 µg/mL (≈ 2.57 to 5.14 µM) | 2 to 4 µg/mL (≈ 2.57 to 5.14 µM) | 2 to 4 µg/mL (≈ 2.57 to 5.14 µM) | 2 to 4 µg/mL (≈ 2.57 to 5.14 µM) | < 1 µg/mL | < 1 µg/mL | 2 to 4 µg/mL (≈ 2.57 to 5.14 µM) | 8 to 16 µg/mL (≈ 10.3 to 20.6 µM)
